According to patent publication US10968203B2, “Pyrimidinyl-pyridyloxy-naphthyl compounds and methods of treating IRE1-related diseases and disorders” (Genentech, Inc., priority 2017, dated 2021):

Tested on: XBP1s-luc 293 LUC
Experiment: cellular PD assay, XBP1s-LUC reporter (Example 903)
Assay type: cell-based
Settings: Table 1; read-out: XBP1s-luc 293 LUC (IC50)
Procedure, shortened: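 A luciferase fusion, in frame and expressed only when the XBP1 transcript is spliced, served as the readout of cellular IRE1α activity in an XBP1-Luc reporter line.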

SMILES	IC50
Cc1ccc2c(NS(=O)(=O)Cc3cscn3)cccc2c1Oc1ncccc1-c1ccnc(N[C@H]2CCCNC2)n1 [Example 156, (S)—N-(6-Methyl-5-((3-(2-(piperidin-3-ylamino)pyrimidin-4-yl)pyridin-2-yl)oxy)naphthalen-1-yl)-1-(thiazol-4-yl)methanesulfonamide]	157 nM
Cc1ccc2c(NS(=O)(=O)Cc3ccc(F)cc3F)cccc2c1Oc1ncccc1-c1ccnc(N[C@H]2CCCNC2)n1 [Example 157, (S)-1-(2,4-Difluorophenyl)-N-(6-methyl-5-((3-(2-(piperidin-3-ylamino)pyrimidin-4-yl)pyridin-2-yl)oxy)naphthalen-1-yl)methanesulfonamide]	8 nM
CCCS(=O)(=O)Nc1cccc2c(Oc3ncccc3-c3ccnc(N[C@H]4CC[C@H](N)CC4)n3)c(C)ccc12 [Example 158, N-(5-((3-(2-(((trans)-4-Aminocyclohexyl)amino)pyrimidin-4-yl)pyridin-2-yl)oxy)-6-methylnaphthalen-1-yl)propane-1-sulfonamide]	471 nM
Cc1ccc2c(NS(=O)(=O)CF)cccc2c1Oc1ncccc1-c1ccnc(N[C@H]2CCCNC2)n1 [Example 159, (S)-1-Fluoro-N-(6-methyl-5-(3-(2-(piperidin-3-ylamino)pyrimidin-4-yl)pyridin-2-yloxy)naphthalen-1-yl)methanesulfonamide]	174 nM
Cc1ccc2c(NS(=O)(=O)Cc3ccc(C(F)F)cc3)cccc2c1Oc1ncccc1-c1ccnc(N[C@H]2CCCNC2)n1 [Example 160, (S)-1-(4-(Difluoromethyl)phenyl)-N-(6-methyl-5-((3-(2-(piperidin-3-ylamino)pyrimidin-4-yl)pyridin-2-yl)oxy)naphthalen-1-yl)methanesulfonamide]	13 nM
CO[C@H]1CNC[C@@H](Nc2nccc(-c3cccnc3Oc3c(C)ccc4c(NS(=O)(=O)Cc5ccccc5)cccc34)n2)C1 [Example 161, N-(5-((3-(2-(((3S,5R)-5-Methoxypiperidin-3-yl)amino)pyrimidin-4-yl)pyridin-2-yl)oxy)-6-methylnaphthalen-1-yl)-1-phenylmethanesulfonamide]	46 nM
Cc1ccc2c(NS(=O)(=O)Cc3ccccc3)cccc2c1Oc1ncccc1-c1ccnc(NC2CNCCC2F)n1 (stereo not drawn) [Example 162, N-(5-((3-(2-((4-Fluoropiperidin-3-yl)amino)pyrimidin-4-yl)pyridin-2-yl)oxy)-6-methylnaphthalen-1-yl)-1-phenylmethanesulfonamide]	67 nM
Cc1cc(NS(=O)(=O)Cc2ccccc2)c2ccccc2c1Oc1ncccc1-c1ccnc(N[C@H]2CCCNC2)n1 [Example 163, (S)—N-(3-Methyl-4-((3-(2-(piperidin-3-ylamino)pyrimidin-4-yl)pyridin-2-yl)oxy)naphthalen-1-yl)-1-phenylmethanesulfonamide]	47 nM
CCCS(=O)(=O)Nc1cc(C)c(Oc2ncccc2-c2ccnc(N[C@H]3CCCNC3)n2)c2ccccc12 [Example 164, (S)—N-(3-Methyl-4-((3-(2-(piperidin-3-ylamino)pyrimidin-4-yl)pyridin-2-yl)oxy)naphthalen-1-yl)propane-1-sulfonamide]	147 nM
CCCS(=O)(=O)Nc1cccc2c(Oc3ncccc3-c3ccnc(N[C@@H]4CNC[C@@H](F)C4)n3)c(C)ccc12 [Example 165, N-(5-((3-(2-(((3S,5S)-5-Fluoropiperidin-3-yl)amino)pyrimidin-4-yl)pyridin-2-yl)oxy)-6-methylnaphthalen-1-yl)propane-1-sulfonamide]	164 nM
Cc1ccc2c(NS(=O)(=O)Cc3ccccc3CO)cccc2c1Oc1ncccc1-c1ccnc(N[C@H]2CCCNC2)n1 [Example 166, (S)-1-(2-(Hydroxymethyl)phenyl)-N-(6-methyl-5-((3-(2-(piperidin-3-ylamino)pyrimidin-4-yl)pyridin-2-yl)oxy)naphthalen-1-yl)methanesulfonamide]	118 nM
Cc1ccc2c(NS(=O)(=O)Cc3ccncc3)cccc2c1Oc1ncccc1-c1ccnc(N[C@H]2CCCNC2)n1 [Example 167, (S)—N-(6-Methyl-5-((3-(2-(piperidin-3-ylamino)pyrimidin-4-yl)pyridin-2-yl)oxy)naphthalen-1-yl)-1-(pyridin-4-yl)methanesulfonamide]	19 nM
Cc1cc(S(=O)(=O)Nc2cccc3c(Oc4ncccc4-c4ccnc(N[C@H]5CCCNC5)n4)c(C)ccc23)sn1 [Example 168, (S)-3-Methyl-N-(6-methyl-5-((3-(2-(piperidin-3-ylamino)pyrimidin-4-yl)pyridin-2-yl)oxy)naphthalen-1-yl)isothiazole-5-sulfonamide]	172 nM
Cc1ccc2c(NS(=O)(=O)Cc3ccccc3CF)cccc2c1Oc1ncccc1-c1ccnc(N[C@H]2CCCNC2)n1 [Example 170, (S)-1-(2-(Fluoromethyl)phenyl)-N-(6-methyl-5-((3-(2-(piperidin-3-ylamino)pyrimidin-4-yl)pyridin-2-yl)oxy)naphthalen-1-yl)methanesulfonamide]	15 nM
Cc1cccc(S(=O)(=O)Nc2cccc3c(Oc4ncccc4-c4ccnc(N[C@H]5CCCNC5)n4)c(C)ccc23)n1 [Example 171, (S)-6-Methyl-N-(6-methyl-5-((3-(2-(piperidin-3-ylamino)pyrimidin-4-yl)pyridin-2-yl)oxy)naphthalen-1-yl)pyridine-2-sulfonamide]	309 nM
Cc1ccc2c(NS(=O)(=O)CBr)cccc2c1Oc1ncccc1-c1ccnc(N[C@H]2CCCNC2)n1 [Example 172, (S)-1-Bromo-N-(6-methyl-5-(3-(2-(piperidin-3-ylamino)pyrimidin-4-yl)pyridin-2-yloxy)naphthalen-1-yl)methanesulfonamide]	393 nM
CCC(=O)Nc1cccc2c(Oc3ncccc3-c3ccnc(N[C@H]4CCCNC4)n3)c(C)ccc12 [Example 173, (S)—N-(6-Methyl-5-((3-(2-(piperidin-3-ylamino)pyrimidin-4-yl)pyridin-2-yl)oxy)naphthalen-1-yl)propionamide]	226 nM
Cc1ccc2c(NC(=O)c3ccc4ccccc4c3)cccc2c1Oc1ncccc1-c1ccnc(N[C@H]2CCCNC2)n1 [Example 174, (S)—N-(6-Methyl-5-((3-(2-(piperidin-3-ylamino)pyrimidin-4-yl)pyridin-2-yl)oxy)naphthalen-1-yl)-2-naphthamide]	278 nM
Cc1ccc2c(NC(=O)c3ccccn3)cccc2c1Oc1ncccc1-c1ccnc(N[C@H]2CCCNC2)n1 [Example 175, (S)—N-(6-Methyl-5-((3-(2-(piperidin-3-ylamino)pyrimidin-4-yl)pyridin-2-yl)oxy)naphthalen-1-yl)picolinamide]	333 nM
Cc1ccc2c(NC(=O)c3cn(C)cn3)cccc2c1Oc1ncccc1-c1ccnc(N[C@H]2CCCNC2)n1 [Example 176, (S)-1-Methyl-N-(6-methyl-5-((3-(2-(piperidin-3-ylamino)pyrimidin-4-yl)pyridin-2-yl)oxy)naphthalen-1-yl)-1H-imidazole-4-carboxamide]	368 nM
Cc1ccc2c(NC(=O)Cc3ccccc3F)cccc2c1Oc1ncccc1-c1ccnc(N[C@H]2CCCNC2)n1 [Example 177, (S)-2-(2-Fluorophenyl)-N-(6-methyl-5-((3-(2-(piperidin-3-ylamino)pyrimidin-4-yl)pyridin-2-yl)oxy)naphthalen-1-yl)acetamide]	108 nM
Cc1ccc2c(NC(=O)CCC(F)(F)F)cccc2c1Oc1ncccc1-c1ccnc(N[C@H]2CCCNC2)n1 [Example 178, (S)-4,4,4-Trifluoro-N-(6-methyl-5-((3-(2-(piperidin-3-ylamino)pyrimidin-4-yl)pyridin-2-yl)oxy)naphthalen-1-yl)butanamide]	125 nM
CCCS(=O)(=O)Nc1cccc2c(Oc3ncccc3-c3ccnc(N[C@H]4CCCNC4)n3)c(Cl)ccc12 [Example 181]	185 nM
CCC(C)C(=O)Nc1cccc2c(Oc3ncccc3-c3ccnc(N[C@H]4CCCNC4)n3)c(C)ccc12 (stereo partly drawn) [Example 182, 2-Methyl-N-(6-methyl-5-((3-(2-(((S)-piperidin-3-yl)amino)pyrimi-din-4-yl)pyridin-2-yl)oxy)naphthalen-1-yl)butanamide]	154 nM
Cc1ccc2c(NC(=O)CC#N)cccc2c1Oc1ncccc1-c1ccnc(N[C@H]2CCCNC2)n1 [Example 183, (S)-2-Cyano-N-(6-methyl-5-((3-(2-(piperidin-3-ylamino)pyrimidin-4-yl)pyridin-2-yl)oxy)naphthalen-1-yl)acetamide]	260 nM
Cc1ccc2c(NC(=O)Cc3ccccc3)cccc2c1Oc1ncccc1-c1ccnc(N[C@H]2CCCNC2)n1 [Example 184, N-[6-Methyl-5-[[3-[2-[[(3S)-3-piperidyl]amino]pyrimidin-4-yl]-2-pyridyl]oxy]-1-naphthyl]-2-phenyl-acetamide]	100 nM
COCCS(=O)(=O)Nc1c(F)ccc2c(Oc3ncccc3-c3ccnc(N[C@H]4CCCNC4)n3)c(C)ccc12 [Example 185, (S)—N-(2-Fluoro-6-methyl-5-((3-(2-(piperidin-3-ylamino)pyrimidin-4-yl)pyridin-2-yl)oxy)naphthalen-1-yl)-2-methoxyethanesulfonamide]	73.5 nM
Cc1ccc2c(NS(=O)(=O)Cc3ccc(F)cc3F)c(F)ccc2c1Oc1ncccc1-c1ccnc(N[C@H]2CCCNC2)n1 [Example 186, (S)-1-(2,4-Difluorophenyl)-N-(2-fluoro-6-methyl-5-((3-(2-(piperidin-3-ylamino)pyrimidin-4-yl)pyridin-2-yl)oxy)naphthalen-1-yl)methanesulfonamide]	4.89 nM
Cc1ccc2c(NC(=O)C3CCCC3)cccc2c1Oc1ncccc1-c1ccnc(N[C@H]2CCCNC2)n1 [Example 187, (S)—N-(6-Methyl-5-((3-(2-(piperidin-3-ylamino)pyrimidin-4-yl)pyridin-2-yl)oxy)naphthalen-1-yl)cyclopentanecarboxamide]	157 nM
Cc1ccc2c(NC(=O)CC(C)C)cccc2c1Oc1ncccc1-c1ccnc(N[C@H]2CCCNC2)n1 [Example 188, (S)-3-Methyl-N-(6-methyl-5-((3-(2-(piperidin-3-ylamino)pyrimidin-4-yl)pyridin-2-yl)oxy)naphthalen-1-yl)butanamide]	141 nM
